Structures are written as SMILES.

The target of experiment [1] is T1, Serine/threonine-protein kinase BRSK2 (Homo sapiens) (UniProt Q8IWQ3).
T1 sequence (whole entry): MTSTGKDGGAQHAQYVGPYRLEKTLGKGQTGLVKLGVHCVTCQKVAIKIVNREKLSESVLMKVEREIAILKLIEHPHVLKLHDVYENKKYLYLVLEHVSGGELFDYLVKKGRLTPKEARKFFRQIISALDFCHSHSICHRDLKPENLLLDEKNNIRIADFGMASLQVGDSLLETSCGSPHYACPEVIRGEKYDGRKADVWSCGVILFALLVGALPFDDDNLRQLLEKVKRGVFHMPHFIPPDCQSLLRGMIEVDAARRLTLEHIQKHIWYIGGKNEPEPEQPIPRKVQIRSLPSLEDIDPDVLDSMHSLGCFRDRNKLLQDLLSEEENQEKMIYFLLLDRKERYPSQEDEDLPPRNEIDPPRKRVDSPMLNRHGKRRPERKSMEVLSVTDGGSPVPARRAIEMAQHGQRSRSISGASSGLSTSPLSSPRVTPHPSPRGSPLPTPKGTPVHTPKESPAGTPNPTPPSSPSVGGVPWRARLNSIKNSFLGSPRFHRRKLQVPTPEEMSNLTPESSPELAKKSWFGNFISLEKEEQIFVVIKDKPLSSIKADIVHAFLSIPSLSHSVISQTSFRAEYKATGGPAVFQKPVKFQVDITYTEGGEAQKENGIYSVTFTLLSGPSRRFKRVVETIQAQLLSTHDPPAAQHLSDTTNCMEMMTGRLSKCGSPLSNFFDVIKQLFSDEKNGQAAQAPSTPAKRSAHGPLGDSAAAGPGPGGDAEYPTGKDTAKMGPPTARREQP
Conditions: at 10 µM.

In experiment [2] the target is Transient receptor potential cation channel subfamily M member 6 (Homo sapiens) (UniProt Q9BX84). The experiment in a line: Selectivity interaction (KinomeScan (DiscoverX)) EUB0000595a TRPM6. To be noted: at 10 µM.
Chain of Transient receptor potential cation channel subfamily M member 6 (Homo sapiens) (Q9BX84 whole entry): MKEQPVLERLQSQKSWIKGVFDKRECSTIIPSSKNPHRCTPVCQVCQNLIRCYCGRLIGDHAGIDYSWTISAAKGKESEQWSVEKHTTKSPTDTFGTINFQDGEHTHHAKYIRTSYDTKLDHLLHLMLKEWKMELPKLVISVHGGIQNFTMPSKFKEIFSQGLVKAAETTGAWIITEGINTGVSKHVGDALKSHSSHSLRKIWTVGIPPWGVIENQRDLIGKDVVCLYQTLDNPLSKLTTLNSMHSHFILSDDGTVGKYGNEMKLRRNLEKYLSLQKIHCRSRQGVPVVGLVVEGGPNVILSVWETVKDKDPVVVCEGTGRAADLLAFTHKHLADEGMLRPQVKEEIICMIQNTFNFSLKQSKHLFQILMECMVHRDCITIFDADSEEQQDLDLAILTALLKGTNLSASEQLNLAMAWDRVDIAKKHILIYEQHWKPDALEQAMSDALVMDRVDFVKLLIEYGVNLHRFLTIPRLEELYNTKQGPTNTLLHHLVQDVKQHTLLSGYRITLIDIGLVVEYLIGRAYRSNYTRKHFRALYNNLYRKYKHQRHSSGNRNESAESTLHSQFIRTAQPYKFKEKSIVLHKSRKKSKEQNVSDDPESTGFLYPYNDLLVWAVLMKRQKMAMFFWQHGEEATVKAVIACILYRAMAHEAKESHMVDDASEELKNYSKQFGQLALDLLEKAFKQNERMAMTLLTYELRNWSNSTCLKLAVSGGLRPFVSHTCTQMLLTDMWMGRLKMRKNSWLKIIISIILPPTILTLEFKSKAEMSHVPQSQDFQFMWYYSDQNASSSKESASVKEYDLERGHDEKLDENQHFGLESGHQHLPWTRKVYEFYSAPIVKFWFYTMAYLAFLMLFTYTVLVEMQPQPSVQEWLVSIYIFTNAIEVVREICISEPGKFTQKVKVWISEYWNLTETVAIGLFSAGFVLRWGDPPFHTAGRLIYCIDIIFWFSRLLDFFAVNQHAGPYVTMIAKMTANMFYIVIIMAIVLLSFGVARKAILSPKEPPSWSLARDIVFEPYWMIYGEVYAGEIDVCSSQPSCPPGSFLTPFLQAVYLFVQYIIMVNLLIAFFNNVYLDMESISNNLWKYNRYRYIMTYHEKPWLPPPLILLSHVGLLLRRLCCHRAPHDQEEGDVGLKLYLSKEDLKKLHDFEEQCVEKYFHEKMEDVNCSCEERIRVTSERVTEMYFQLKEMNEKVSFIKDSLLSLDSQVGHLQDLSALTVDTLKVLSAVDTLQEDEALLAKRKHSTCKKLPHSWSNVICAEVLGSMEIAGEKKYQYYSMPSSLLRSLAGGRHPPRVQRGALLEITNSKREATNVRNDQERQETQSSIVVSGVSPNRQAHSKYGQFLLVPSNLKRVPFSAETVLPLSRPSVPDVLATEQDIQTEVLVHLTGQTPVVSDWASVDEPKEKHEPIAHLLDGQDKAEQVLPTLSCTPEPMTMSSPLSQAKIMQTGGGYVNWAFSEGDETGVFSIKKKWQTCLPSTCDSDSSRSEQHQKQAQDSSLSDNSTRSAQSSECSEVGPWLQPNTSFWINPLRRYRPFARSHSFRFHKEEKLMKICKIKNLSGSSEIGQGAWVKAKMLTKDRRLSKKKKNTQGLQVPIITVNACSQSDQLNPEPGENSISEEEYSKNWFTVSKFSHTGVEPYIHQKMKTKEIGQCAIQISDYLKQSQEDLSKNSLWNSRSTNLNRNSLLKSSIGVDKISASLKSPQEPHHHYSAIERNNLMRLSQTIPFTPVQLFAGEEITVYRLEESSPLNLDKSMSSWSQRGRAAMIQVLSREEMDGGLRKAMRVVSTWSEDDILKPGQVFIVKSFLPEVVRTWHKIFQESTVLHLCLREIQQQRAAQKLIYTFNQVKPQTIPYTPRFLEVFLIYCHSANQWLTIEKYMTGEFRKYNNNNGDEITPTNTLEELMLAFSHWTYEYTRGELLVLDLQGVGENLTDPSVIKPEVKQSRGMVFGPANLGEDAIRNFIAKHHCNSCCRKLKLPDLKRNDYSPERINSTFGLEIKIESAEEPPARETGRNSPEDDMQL
Experiment [3] addresses Protein-tyrosine kinase 6 (Homo sapiens, UniProt Q13882). Conditions: at 10 µM.
In experiment [4] the target is Calcium/calmodulin-dependent protein kinase type 1 (Homo sapiens) (UniProt Q14012). To be noted: at 10 µM.
Experiment [5] has as its system Tyrosine-protein kinase ABL1 (Homo sapiens), P00519 [F317L]. The experiment in a line: Selectivity interaction (KinomeScan (DiscoverX)) EUB0000666a ABL1. Conditions: at 10 µM.
Experiment [6] addresses Serine/threonine-protein kinase PLK2 (Homo sapiens, UniProt Q9NYY3). The experiment can be described thus: Selectivity interaction (KinomeScan (DiscoverX)) EUB0000666a PLK2. To be noted: at 10 µM.
The target in experiment [7] is Cyclin-dependent kinase 18 (Homo sapiens) (UniProt Q07002). The experiment can be described thus: Selectivity interaction (ActivX KiNativ screen (kinase selectivity in THP-1 cell lysates)) EUB0000639a CDK18. Type of experiment: subcellular. To be noted: lysate, at 5 µM.
The target in experiment [8] is T2, Serine/threonine-protein kinase VRK1 (Homo sapiens) (UniProt Q99986).
T2 sequence (whole entry): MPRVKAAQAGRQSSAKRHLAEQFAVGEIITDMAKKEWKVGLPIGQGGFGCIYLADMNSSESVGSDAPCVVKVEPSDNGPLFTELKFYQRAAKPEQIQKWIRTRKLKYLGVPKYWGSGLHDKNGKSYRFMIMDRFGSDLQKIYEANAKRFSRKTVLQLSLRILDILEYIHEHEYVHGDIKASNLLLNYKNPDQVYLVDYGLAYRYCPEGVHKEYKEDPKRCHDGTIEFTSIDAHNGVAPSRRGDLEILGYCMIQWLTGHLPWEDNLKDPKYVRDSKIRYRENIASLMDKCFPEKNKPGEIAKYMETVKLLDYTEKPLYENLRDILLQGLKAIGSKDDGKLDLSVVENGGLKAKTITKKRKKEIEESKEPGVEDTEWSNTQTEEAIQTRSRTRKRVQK
The experiment can be described thus: Selectivity interaction (Kinase panel (DSF assay)) EUB0001559a VRK1. In general terms: In DSF a fluorescence change marks the thermal transition of the protein.

Experiment [9] deals with Serine/threonine-protein kinase 32B (Homo sapiens) (UniProt Q9NY57). The experiment can be described thus: Selectivity interaction (KinomeScan (DiscoverX)) EUB0000045b STK32B.
Chain of Serine/threonine-protein kinase 32B (Homo sapiens) (Q9NY57 whole entry): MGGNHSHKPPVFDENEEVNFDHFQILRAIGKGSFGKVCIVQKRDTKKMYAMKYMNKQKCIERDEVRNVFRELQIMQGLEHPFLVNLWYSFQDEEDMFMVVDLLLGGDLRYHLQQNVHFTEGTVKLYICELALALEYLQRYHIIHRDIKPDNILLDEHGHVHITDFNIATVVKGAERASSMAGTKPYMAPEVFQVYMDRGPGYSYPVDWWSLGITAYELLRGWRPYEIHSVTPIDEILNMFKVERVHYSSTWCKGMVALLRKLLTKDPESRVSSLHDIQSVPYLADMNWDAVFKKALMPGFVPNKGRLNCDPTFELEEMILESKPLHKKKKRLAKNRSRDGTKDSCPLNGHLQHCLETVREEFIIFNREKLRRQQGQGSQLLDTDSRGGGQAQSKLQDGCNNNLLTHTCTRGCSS
Experiment [10] deals with Cyclin-dependent kinase-like 3 (Homo sapiens) (UniProt Q8IVW4). The experiment in a line: Selectivity interaction (Ambit KINOMEscan and KiNATiv profiling in Jurkat cells) EUB0000090b CDKL3. To be noted: at 1 µM. Type of experiment: cell-based.
Chain of Cyclin-dependent kinase-like 3 (Homo sapiens) (Q8IVW4 whole entry, looked up): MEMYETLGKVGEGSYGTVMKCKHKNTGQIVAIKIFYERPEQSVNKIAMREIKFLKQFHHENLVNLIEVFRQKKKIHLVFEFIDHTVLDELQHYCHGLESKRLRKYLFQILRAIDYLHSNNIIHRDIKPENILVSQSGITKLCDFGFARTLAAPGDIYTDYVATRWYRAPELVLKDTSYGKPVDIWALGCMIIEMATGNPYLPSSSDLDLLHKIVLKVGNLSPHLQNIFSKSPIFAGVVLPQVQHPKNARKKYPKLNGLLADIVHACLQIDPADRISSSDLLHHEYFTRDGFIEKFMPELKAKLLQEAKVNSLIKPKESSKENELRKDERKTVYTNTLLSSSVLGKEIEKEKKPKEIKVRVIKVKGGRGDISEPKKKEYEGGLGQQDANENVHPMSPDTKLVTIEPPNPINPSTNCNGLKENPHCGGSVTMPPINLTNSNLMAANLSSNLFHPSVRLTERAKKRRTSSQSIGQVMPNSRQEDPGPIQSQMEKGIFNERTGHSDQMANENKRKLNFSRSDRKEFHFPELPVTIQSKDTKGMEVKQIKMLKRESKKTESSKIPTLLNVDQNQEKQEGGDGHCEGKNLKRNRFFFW
Experiment [11] concerns the target T3, Inhibitor of nuclear factor kappa-B kinase subunit epsilon (Homo sapiens) (UniProt Q14164).
T3 sequence (whole entry): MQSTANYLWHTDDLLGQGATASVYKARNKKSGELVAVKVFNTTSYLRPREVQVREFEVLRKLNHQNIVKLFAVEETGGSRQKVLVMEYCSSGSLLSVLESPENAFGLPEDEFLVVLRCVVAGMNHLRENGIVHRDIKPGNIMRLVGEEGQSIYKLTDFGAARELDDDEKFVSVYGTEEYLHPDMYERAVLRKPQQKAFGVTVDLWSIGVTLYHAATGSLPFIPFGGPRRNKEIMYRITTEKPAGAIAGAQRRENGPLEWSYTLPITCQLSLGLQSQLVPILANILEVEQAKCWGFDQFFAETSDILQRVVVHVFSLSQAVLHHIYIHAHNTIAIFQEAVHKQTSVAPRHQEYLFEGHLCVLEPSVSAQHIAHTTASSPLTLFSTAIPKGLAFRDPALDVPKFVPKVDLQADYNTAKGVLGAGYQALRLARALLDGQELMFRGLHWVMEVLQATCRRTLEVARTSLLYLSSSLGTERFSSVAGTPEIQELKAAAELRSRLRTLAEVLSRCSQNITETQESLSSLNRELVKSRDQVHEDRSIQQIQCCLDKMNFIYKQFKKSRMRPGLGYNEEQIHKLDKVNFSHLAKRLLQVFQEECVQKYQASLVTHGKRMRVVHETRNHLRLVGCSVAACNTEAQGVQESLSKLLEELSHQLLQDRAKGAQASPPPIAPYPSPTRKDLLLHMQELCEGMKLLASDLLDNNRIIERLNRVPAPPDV
The experiment in a line: Selectivity interaction (Ambit KINOMEscan and KiNATiv profiling in Jurkat cells) EUB0000090b IKBKE. Type of experiment: cell-based. To be noted: at 1 µM.

The next experiment has as its target Activated CDC42 kinase 1 (Homo sapiens, UniProt Q07912). The experiment in a line: Selectivity interaction (KinomeScan (DiscoverX)) EUB0000092b TNK2. Conditions: at 10 µM.
Experiment [12] has as its target Rho-associated protein kinase 1 (Homo sapiens) (UniProt Q13464). The experiment can be described thus: Selectivity interaction (KinomeScan (DiscoverX)) EUB0000092b ROCK1. Conditions: at 10 µM.
Experiment [13] concerns the target Insulin-like growth factor 1 receptor (Homo sapiens, UniProt P08069). The experiment in a line: Selectivity interaction (KinomeScan (DiscoverX)) EUB0001079a IGF1R. To be noted: at 1 µM.
In experiment [14] the target is Protein kinase C theta type (Homo sapiens, UniProt Q04759). The experiment can be described thus: Selectivity interaction (KinomeScan (DiscoverX)) EUB0001079a PRKCQ. To be noted: at 1 µM.
Experiment [15] concerns the target Serine/threonine-protein kinase WNK2 (Homo sapiens) (UniProt Q9Y3S1). The experiment in a line: Selectivity interaction (KinomeScan (DiscoverX)) EUB0000229b WNK2. Conditions: at 10 µM.

Chain of Serine/threonine-protein kinase PLK2 (Q9NYY3 whole entry, looked up): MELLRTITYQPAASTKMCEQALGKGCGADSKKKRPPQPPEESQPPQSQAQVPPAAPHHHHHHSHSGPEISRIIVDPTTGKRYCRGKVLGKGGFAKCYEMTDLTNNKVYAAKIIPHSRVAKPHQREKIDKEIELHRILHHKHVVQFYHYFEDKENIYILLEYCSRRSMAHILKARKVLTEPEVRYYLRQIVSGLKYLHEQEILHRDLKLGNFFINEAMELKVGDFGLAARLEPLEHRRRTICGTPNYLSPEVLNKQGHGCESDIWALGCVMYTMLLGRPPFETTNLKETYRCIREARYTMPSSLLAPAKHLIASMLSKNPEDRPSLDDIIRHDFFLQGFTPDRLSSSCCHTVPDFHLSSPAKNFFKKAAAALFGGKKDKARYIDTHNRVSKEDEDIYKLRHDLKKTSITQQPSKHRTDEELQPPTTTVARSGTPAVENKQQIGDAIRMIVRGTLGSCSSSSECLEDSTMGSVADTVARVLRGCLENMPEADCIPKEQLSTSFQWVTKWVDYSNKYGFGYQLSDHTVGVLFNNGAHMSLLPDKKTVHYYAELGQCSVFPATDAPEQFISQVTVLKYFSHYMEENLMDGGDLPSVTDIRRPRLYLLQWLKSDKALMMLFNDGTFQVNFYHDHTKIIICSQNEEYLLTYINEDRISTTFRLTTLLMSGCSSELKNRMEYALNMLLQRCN
Chain of Rho-associated protein kinase 1 (Homo sapiens) (Q13464 2-1354 limits assumed): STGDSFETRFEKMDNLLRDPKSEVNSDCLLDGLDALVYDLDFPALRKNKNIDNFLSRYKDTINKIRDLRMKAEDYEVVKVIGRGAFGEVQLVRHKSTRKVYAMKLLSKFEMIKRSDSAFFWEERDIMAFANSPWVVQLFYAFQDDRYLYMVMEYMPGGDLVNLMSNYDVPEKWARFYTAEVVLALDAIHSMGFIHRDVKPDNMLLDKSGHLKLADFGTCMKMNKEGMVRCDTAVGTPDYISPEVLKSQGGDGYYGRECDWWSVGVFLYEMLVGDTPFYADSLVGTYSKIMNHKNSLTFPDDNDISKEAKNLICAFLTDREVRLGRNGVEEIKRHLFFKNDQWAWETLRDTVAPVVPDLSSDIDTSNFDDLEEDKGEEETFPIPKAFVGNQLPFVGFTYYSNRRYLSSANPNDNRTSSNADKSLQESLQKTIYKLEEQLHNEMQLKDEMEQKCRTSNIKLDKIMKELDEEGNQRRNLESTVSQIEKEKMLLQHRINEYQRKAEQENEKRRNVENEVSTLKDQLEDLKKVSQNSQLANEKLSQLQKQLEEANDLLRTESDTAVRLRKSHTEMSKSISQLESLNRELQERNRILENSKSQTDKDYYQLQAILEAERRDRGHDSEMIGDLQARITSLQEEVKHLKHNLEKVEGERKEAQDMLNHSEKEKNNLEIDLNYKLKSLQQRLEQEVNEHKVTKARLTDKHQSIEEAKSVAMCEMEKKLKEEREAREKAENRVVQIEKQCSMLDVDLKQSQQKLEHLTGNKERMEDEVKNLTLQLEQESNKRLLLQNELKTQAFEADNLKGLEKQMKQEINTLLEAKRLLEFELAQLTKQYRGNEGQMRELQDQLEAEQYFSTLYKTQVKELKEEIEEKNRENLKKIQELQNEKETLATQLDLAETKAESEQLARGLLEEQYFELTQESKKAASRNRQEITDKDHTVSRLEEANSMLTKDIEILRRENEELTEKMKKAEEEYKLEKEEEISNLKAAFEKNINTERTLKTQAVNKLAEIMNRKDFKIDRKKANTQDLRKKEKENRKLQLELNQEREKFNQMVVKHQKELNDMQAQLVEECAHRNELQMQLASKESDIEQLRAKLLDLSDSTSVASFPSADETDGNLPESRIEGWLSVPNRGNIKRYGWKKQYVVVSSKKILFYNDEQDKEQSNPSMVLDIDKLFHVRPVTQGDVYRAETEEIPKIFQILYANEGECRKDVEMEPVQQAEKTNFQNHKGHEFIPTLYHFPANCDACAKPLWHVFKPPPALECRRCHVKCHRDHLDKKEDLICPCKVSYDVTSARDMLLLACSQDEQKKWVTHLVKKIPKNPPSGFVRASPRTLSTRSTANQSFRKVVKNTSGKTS

Consider `COCC(=O)NC/C=C/c1ccc2ncnc(Nc3ccc(Oc4ccc(C)nc4)c(C)c3)c2c1` [CP-724714], for which the % of control in [1] and in experiment [2] was 100% throughout.
In the case of `CCN(CC)CCCCNc1ncc2cc(-c3cc(OC)cc(OC)c3)c(NC(=O)NC(C)(C)C)nc2n1`, the % of control in experiment [3] and in experiment [4] was 100% each time.
Consider `O=C(NOC[C@H](O)CO)c1ccc(F)c(F)c1Nc1ccc(I)cc1F`, for which the % of control was 86% in [5] and 100% in experiment [6].
Molecule `CC[C@@H]1[C@H](F)C(=O)N[C@@H]1COc1nccc2cc(C(N)=O)c(OC)cc12` [ZIMLOVISERTIB] showed a % of inhibition in experiment [7] of 6.5%.
For the molecule `CN(C(=O)c1cnn2cccnc12)c1cc2c(cc1N1CCOCC1)C(=O)N(C[C@@H](F)C(C)(C)O)C2`, the dTM in experiment [8] stood at 0.2 K.
With `C=CC(=O)Nc1cc(-n2c(=O)ccc3cnc4ccc(-c5ccc(NS(C)(=O)=O)cc5)cc4c32)ccc1C`, the % of control in [9] (at 1 µM) and in experiment [9] (at 10 µM) was 100% each time.
`CN(C)C/C=C/C(=O)Nc1ccc(C(=O)N2CCCC(Nc3ncc(Cl)c(-c4c[nH]c5ccccc45)n3)C2)cc1` (configuration not stated): the % of control in experiment [10] and in experiment [11] was 100% throughout.
As for `CCC(=O)N1CCN(c2ccc(-n3c(=O)ccc4cnc5ccc(-c6cnc7ccccc7c6)cc5c43)cc2C(F)(F)F)CC1`, the % of control was 51% on Activated CDC42 kinase 1 and 53% in [12].
As to `Nc1cnc(N2CCc3cc(S(=O)(=O)Nc4c(F)cc(Cl)cc4F)cc(N4CCCC4=O)c32)nc1` [TP-020n], the % of control stood at 90% in [13] and 89% in [14].
Regarding `COc1cc(N(C)c2ccnc3ccc(C(F)(F)F)cc23)cc(OC)c1OC`, in [15], the % binding amounted to 100%.

The record behind these values is ChEMBL document CHEMBL5465560, “Selectivity Literature for EUbOPEN Chemogenomic Library” (2024).
